Measurements: patent US20120053227A1, “miR-33 INHIBITORS AND USES THEREOF” (New York University, priority 2010, published 2012)

Assays:
[1] = test system: 3′ UTR of Crot, Cpt1a, Hadhb, Ampkα, and Irs2; test: 3′ UTR luciferase reporter assay, Crot, Cpt1a, Hadhb, Ampkα, Irs2; type: cell-based; settings: only modest differences between miR-33a and miR-33b
Source text: (§1) cDNA fragments corresponding to the entire 3′ UTR of carnitine O-octaniltransferase (Crot), carnitine palmitoyltransferase 1A (Cpt1a), hydroxyacyl-CoAdehydrogenase (Hadhb), AMP kinase subunit-α (Ampkα), and insulin receptor substrate 2 (Irs2), citrate synthase (Cs), 3-hydroxy-3-methylglutaryl CoA (Hmgcr), and Sirtuin 6 (Sirt6) were amplified by RT-PCR from total RNA extracted from HepG2 cells with XhoI and NotI linkers. The PCR products were directionally cloned downstream of the Renilla luciferase ORF of the ψCHECK2 vector (Promega) that also contains a constitutively expressed firefly luciferase gene, which is used to normalize transfections. Point mutations in the seed region of predicted miR-33 sites within the 3′ UTR of Crot, Cpt1a, Hadhb, Ampkα, and Sirt6 were generated using Multisite-Quickchange (Stratagene) according to the manufacturer's protocol. All constructs were confirmed by sequencing. COS-7 cells were plated into 12-well plates (Costar) and cotransfected with 1 μg indicated 3′ UTR luciferase reporter vectors and the miR-33 mimic or negative control mimic (CM) (Dharmacon) using Lipofectamine 2000 (Invitrogen). Luciferase activity was measured using the Dual-Glo Luciferase Assay System (Promega). […]

Huh7 cells [2] = test: mRNA and protein expression of miR-33 target genes in transfected Huh7 cells; type: cell-based; settings: for CROT, CPT1a, HADHB, AMPKα, SIRT6, and IRS2 protein expression: to a similar extent for miR-33a and miR-33b
Method: Total RNA was isolated using TRIzol reagent (Invitrogen) according to the manufacturer's protocol. For mRNA quantification, cDNA was synthesized using Taqman RT reagents (Applied Biosystems), following the manufacturer's protocol. Quantitative real-time PCR was performed in triplicate using iQ SYBR green Supermix (BioRad) on iCycler Real-Time Detection System (BioRad). The mRNA level was normalized to GAPDH as a house keeping gene. The primers sequences used were: […]
(§2) HepG2 and Huh7 cells were transfected with 40 nM miRIDIAN miRNA mimics (miR-33) or 60 nM miRIDIAN miRNA inhibitors (anti-miR-33) (Dharmacon) using Oligofectamine (Invitrogen). All experimental control samples were treated with an equal concentration of a nontargeting control mimic sequence (CM) or an inhibitor negative control sequence (CI) to control for nonsequence-specific effects in miRNA experiments

Huh7 cells [3] = test: 2-Deoxyglucose uptake; type: cell-based
Method: Huh7 cells were transfected with miR-33b (20 nM) or negative control (Con-miR) for 48 h. Then, cells were cultured in serum-free media for 24 h, washed two times, and placed into warmed buffer for 2 h before glucose uptake studies. Insulin (100 nM) was added for 10 min. After this, […] 2-deoxyglucose (2-DOG) was added to each well (Perkin-Elmer). After 5 min, 5% unlabeled glucose was added to stop the reaction. Cells were then washed two times in 5% glucose and lysed by the addition of 0.5% SDS; 3 mL Ultima Gold scintillant (Packard) were added, samples were vortexed, and radioactivity was counted.

Huh7 cells [4] = test: AKT and ERK phosphorylation after insulin stimulation; type: cell-based
Method: Cell were lysed in ice-cold buffer containing 50 mM Tris-HCl, pH 7.5, 125 mM NaCl, 1% NP-40, 5.3 mM NaF, 1.5 mM NaP and 1 mM orthovanadate, 175 mg/ml octylglucopyranoside and 1 mg/ml of protease inhibitor cocktail (Roche) and 0.25 mg/ml AEBSF (Roche). Cell lysates were rotated at 4° C. for 1 h before the insoluble material were removed by centrifugation at 12000×g for 10 min. After normalizing for equal protein concentration, cell lysates were resuspended in SDS sample buffer before separation by SDS-PAGE. Following overnight transfer of the proteins onto nitrocellulose membranes. The membranes were probed with the indicated antibodies, and protein bands were visualized using the Odyssey Infrared Imaging System (LI-COR Biotechnology). Densitometry analysis of the gels was carried out using ImageJ software from the NIH (http://rsbweb.nih.gov/ij/).
as §2

Sirt6 3′ UTR = test: 3′ UTR luciferase reporter assay, Sirt6; type: cell-based, human
Source text: as §1

Huh7 cells [5] = test: Triglyceride content and synthesis in Huh7 cells incubated with oleate and starved; type: cell-based; settings: oleate 24 h then starved 24 h
Method: The accumulation of neutral lipids and lipid droplet formation was next evaluated tin Huh7 cells incubated with oleate for 24 h and then starved for the next 24 h. […] The increase in triglyceride content was independent of changes in triglyceride synthesis rates.

Huh7 cells [6] = test: Fatty acid β-oxidation assay ([14C]-oleate); type: cell-based
Method: HepG2 and Huh7 cells were transfected with miR-33 (20 nM), anti-miR-33 (40 nM), or negative control (con-miR and con-inh, respectively), and the rate of fatty acid oxidation was determined. Cells were cultured in the presence of [^14C]-oleate (Perkin-Elmer)-BSA complex, and the released [^14C]-carbon dioxide was trapped for 1 h at 37° C. onto filter paper soaked in 100 mM sodium hydroxide. The rate of β-oxidation was calculated as the amount of trapped [^14C]-carbon dioxide in relative units produced per milligram of protein per hour. Experiments were performed in triplicate in p60 plates and were repeated at least three times.

Row | Substance | 3′ UTR activity of Crot, Cpt1a, Hadhb, Ampkα, and Irs2 [1] | CROT, CPT1a, HADHB, AMPKα, SIRT6, and IRS2 protein expression (Huh7 cells [2]) | insulin-induced 2-deoxyglucose (2-DOG) uptake (Huh7 cells [3]) | AKT and ERK phosphorylation (Huh7 cells [4]) | SIRT6 mRNA and protein levels (Huh7 cells [2]) | miR-33b expression after transfection, increase (Huh7 cells [2]) [fold] | mRNA levels of CROT, CPT1a, HADHB, AMPKα, and IRS2 (Huh7 cells [2]; anti-miR-33b: CROT, CPT1a, AMPKα, IRS2) | 3′ UTR activity of Sirt6 (Sirt6 3′ UTR) | triglycerides (TAG) accumulation (Huh7 cells [5]) | miR-33b expression, fold increase (Huh7 cells [6]) [fold] | rate of fatty acid β-oxidation (Huh7 cells [6])
1 | miR-33a: miR-33a transfected into Huh7 cells; human miR-33a sequence GUGCAUUGUAGUUGCAUUGCA (SEQ ID NO:32) (listed as RNA, chemistry not given here; listed as Homo sapiens) | significantly inhibited | inhibited | – | – | – | – | – | – | – | – | –
2 | miR-33b: miR-33b transfected into Huh7 cells; human miR-33b sequence GUGCAUUGCUGUUGCAUUGC (SEQ ID NO:34) (listed as RNA, chemistry not given here; listed as Homo sapiens) | significantly inhibited | inhibited | reduced | reduced | significantly inhibited | 32 | significantly inhibited | markedly repressed | accumulated more triglycerides | 27 | markedly reduced
